Test results as given in BigSolDB 2.1.

CCOc1ccc(C=O)cc1O
solubility (mole fraction)
Details | 283.15 K | 288.15 K | 293.15 K | 298.15 K | 303.15 K | 308.15 K | 313.15 K | 318.15 K | 323.15 K
in THF | 0.0523 | 0.0624 | 0.071 | 0.0842 | 0.094 | 0.108 | 0.123 | 0.138 | 0.156
in acetone | 0.0425 | 0.0467 | 0.0515 | 0.057 | 0.0652 | 0.0718 | 0.0819 | 0.092 | 0.114
in acetonitrile | 0.0105 | 0.0133 | 0.015 | 0.0191 | 0.0228 | 0.0285 | 0.0353 | 0.0406 | 0.0551
in ethanol | 0.0066 | 0.0078 | 0.0101 | 0.012 | 0.0141 | 0.0179 | 0.0224 | 0.0276 | 0.0345
in ethyl acetate | 0.0166 | 0.0194 | 0.0212 | 0.0259 | 0.0288 | 0.0361 | 0.0416 | 0.0511 | 0.0606
in ethyl formate | 0.0135 | 0.0172 | 0.0196 | 0.0236 | 0.0278 | 0.0341 | 0.0415 | 0.0488 | 0.0605
in isopropanol | 0.0035 | 0.005 | 0.0063 | 0.0082 | 0.01 | 0.0129 | 0.0168 | 0.0216 | 0.0277
in isopropyl acetate | 0.013 | 0.0156 | 0.0187 | 0.0202 | 0.0227 | 0.0274 | 0.0325 | 0.0387 | 0.0457
in methanol | 0.0072 | 0.0091 | 0.0119 | 0.0159 | 0.0206 | 0.0268 | 0.0362 | 0.0482 | 0.0635
in methyl acetate | 0.0166 | 0.0205 | 0.0263 | 0.0301 | 0.0331 | 0.0409 | 0.048 | 0.0557 | 0.0678
in n-propanol | 0.0048 | 0.0065 | 0.0077 | 0.0098 | 0.0118 | 0.0149 | 0.0194 | 0.0246 | 0.0312
in toluene | 0.0032 | 0.0037 | 0.0042 | 0.0049 | 0.0057 | 0.0068 | 0.0077 | 0.0092 | 0.011
